“Also recorded” adds a separate entry of the source.

The subject of data set [1] is CXCL1 cytokine, G-CSF, TNFα. Briefly: Multi-cytokine LUMINEX panel on peripheral blood of mice exposed to 6 Gy high LET proton radiation. It is filed as in vivo. To be noted: 200 mg/kg s.c. 24 hours before 6 Gy high LET proton radiation; blood taken 3, 6 and 12 days after exposure. As to the method: FIGS. 4A, 4B, and 4C are graphs plotting the levels of CXCL1 cytokine (FIG. 4A), granulocyte colony stimulating factor (G-CSF; FIG. 4B), and tumor necrosis factor alpha (TNFα; FIG. 4C) in blood from mice injected with 200 mg/kg genistein (s.c.) 24 hours prior to exposure to 6 Gy high LET proton radiation. In these experiments, blood was drawn from mice on the indicated days following radiation exposure, and the levels of cytokines were assayed.
(§1) Mice were prophylactically administered genistein (200 mg/kg) via s.c. injection 24 hours prior to radiation exposure. Appropriate sham radiation and vehicle controls were applied. Radiation exposures of 6 Gy with high-LET protons [50 MeV fully modulated spread-out Bragg peak (SOBP)] were utilized. The following parameters were examined:
Cytokine response—Peripheral blood was taken from the treated and irradiated mice 3, 6, and 12 days after radiation exposure, and assessed using a multi-cytokine LUMINEX® panel to evaluate the global inflammatory cytokine response.

Data set [2] concerns Human cardiomyocytes. Briefly: Live cell counts of human cardiomyocytes after mixed field (32% neutron, 68% gamma) radiation. The data set is classed as cell-based. The following applies: treated 24 hours before exposure to various doses of MF radiation; counts 3 days after exposure. As to the method: FIG. 5 is a graph plotting the number of live human cardiomyocytes after treatment of the cells with genistein 24 hours before exposure to various doses of mixed field (32% neutron, 68% gamma) radiation (henceforth referred to as “MF” radiation). Live cell counts were performed 3 days after radiation exposure.
Human cardiomyocytes were treated with genistein 24 hours before exposure to various doses of mixed field (“MF,” 32% neutron, 68% gamma) radiation. Live cell counts were performed 3 days after radiation exposure.

For data set [3], the system named is p53 and γH2AX. Put plainly: Western blot for DNA damage markers p53 and γH2AX in heart and lung tissue of mice exposed to 6 Gy high LET proton radiation. The data set is classed as in vivo. To be noted: 200 mg/kg s.c. 24 hours before 6 Gy high LET proton radiation, tissues harvested 3 days later, vs tubulin control. The protocol:
FIG. 2 is a western blot with heart and lung tissue extracted from animals that were treated with or without genistein [200 mg/kg subcutaneously (s.c.)] and then exposed to 6 Gy high LET proton radiation 24 hours after treatment. The indicated tissues were harvested 3 days later. The levels of p53 (a DNA damage response protein) and γH2AX (a direct measurement of DNA damage) were measured and compared to a tubulin control.
as §1
DNA damage in tissues—Lungs and heart were surgically removed and subjected to thin-slice sectioning, followed by western blot analysis for the DNA damage markers p53 and γH2AX (an effective measure of proton radiation-induced biological damage; see, Liu et al., Radiation Oncology 91(5):1081-1089, 2015), as well as tubulin control.

The conditions of data set [4]: in several pharmaceutically acceptable solvents; cited from earlier work.

In the case of `O=c1c(-c2ccc(O)cc2)coc2cc(O)cc(O)c12` [genistein, 5,7-dihydroxy-3-(4-hydroxyphenyl)-chromen-4-one], in data set [1], the “expression of CXCL1 cytokine in blood” value is “mitigated the effects of proton radiation”, the “expression of G-CSF in blood” value is on record as “mitigated the effects of proton radiation” and the “expression of TNFα in blood” value is on record as “mitigated the effects of proton radiation”. In data set [2], the “survival (live cell counts) after MF radiation” value was “increased survival”. Also, the “p53 levels in response to radiation exposure” value in data set [3] was “prevented a marked increase in p53 levels”. For the same compound, in data set [3] (listed as Genistein), the “p53 levels in response to radiation exposure” value is reported as “ameliorated the effects of proton radiation” and the γH2AX levels result is recorded as “lower levels of γH2AX; also recorded: ameliorated the effects of proton radiation”. The solubility result in data set [4] was “low to virtually no solubility”.
